Three molecules from US11311561B2, “Composition and method for treating, relieving or preventing neuropathic pain, containing choline alfoscerate as active ingredient” (NANOSTEM CO., LTD., priority 2017, dated 2022) can be followed below.

The subject of data set [1] is patients with neuropathic pain. The experiment in a line: Clinical trial: pain intensity by 11-point pain intensity numerical rating scale (PI-NRS) over 12 weeks. The class given is in vivo, human. An excerpt: Patients with neuropathic pain were selected as subjects. The patients were asked to report the characteristics of neuropathic pain (type of neuropathic pain, site of occurrence, time of occurrence and frequency of occurrence), causative factors of pain, presence of diseases and relationship with pain, relationship between pain and drug medication, medication of therapeutic agents for pain, etc.
The characteristics of “nerve block treatment group (control group)” patients are described in Table 1, the characteristics of “choline alfoscerate intravenous administration group (Example 1)” patients are described in Table 2 and the characteristics of “choline alfoscerate oral administration group (Example 2)” patients are described in Table 3.
(§1) The “nerve block treatment group (control group)” patients were injected with 5 mL of 0.5% lidocaine at the sites of pain (4-5 points), once a week.
(§2) The “choline alfoscerate intravenous administration group (Example 1)” patients were intravenously injected slowly with choline alfoscerate (1 g/4 mL) mixed in 100 mL of physiological saline, twice a week.
(§3) The “choline alfoscerate oral administration group (Example 2)” patients were […] with choline alfoscerate (400 mg/capsule), 3 times a day.
Pain intensity was measured for 12 weeks. The pain intensity was evaluated according to the 11-point pain intensity numerical rating scale (PI-NRS), where 0=no pain, weakest pain=1 and most severe pain=10. 2-point reduction in the pain intensity was considered clinically significant as reported (Farrar 2001, Rowbotham 2001, Hawker 2011). The pain intensity was measured on the first visit (T0) and was compared with the pain intensity 2 weeks (T1), 4 weeks (T2), 6 weeks (T3), 8 weeks (T4), 10 weeks (T5) and 12 weeks (T6) after the first drug administration.
Statistical analysis was conducted using the SASS package ver. 23 and significance was tested by the paired t-test.

Data set [2] in a line: Clinical trial: side effects after the treatment. Particulars: Example 1: iv 1 g twice a week; Example 2: oral 400 mg 3 times a day; patients. Type of data set: in vivo, human. The procedure: as §1, §2, §3
Because choline alfoscerate has no effect on the kidney and liver, it is thought that it can be used for people with kidney or liver problems as a therapeutic agent for neuropathic pain.

Data set [3] has as its system spared nerve injury (SNI) rat model. Put plainly: Von Frey filament test (50% up and down threshold) for mechanical allodynia. Particulars: for Mechanical threshold (von Frey), Before: 4 weeks after surgery, before drug treatment; for Effect on mechanical allodynia (in words): pregabalin 30 mg/kg or choline alfoscerate 325 mg/kg ip once a day for one week. The class given is in vivo, Sprague-Dawley (SD) male rats. An excerpt:
The spared nerve injury (SNI) rat model was used as an efficient neuropathic pain model and von Freytest was used for assessing mechanical threshold. The SNI model, one of the peripheral nerve injury models that made from the 3 nerve branches (sciatic nerve), the one was spared, and the other 2 nerves (tibial, common peroneal nerve) were axotomized. Within 4 days of injury, mechanical and thermal hyperalgesia occurs, lasting weeks to up to 6 months.
Sprague-Dawley (SD) male rats (Koatech, South Korea) weighing 100-150 g, were used to generate neuropathic pain rat models. The rats were maintained under specifically controlled conditions (ambient temperature 23±2° C., 12-h light/dark cycle). Food pellets (DBL, Chungbuk, South Korea) and water were supplied ad libitum. All procedures complied with Institutional Animal Care and Use Committee of Dankook University (IACUC, South Korea), which adheres to the guidelines issued by the Institution of Laboratory of Animal Resources.
After surgery, rats were divided into three groups: (1) control (0.9% normal saline), (2) pregabalin (30 mg/kg), (3) choline alfoscerate (325 mg/kg).
Four weeks later after surgery, Drugs were injected intraperitoneally once a day for one week.
To generate an efficient neuropathic pain model, the rats were anesthetized under 3% isoflurane (Hana Pharm., South Korea), the left calf of the rat leg was incised and the common peroneal and the tibial nerve of three peripheral nerve branches in the sciatic nerve were axotomized and the sural nerve was spared then the surgical site was closed. After the surgery, animals were placed in the home cage to recover. 2 weeks after surgery, hypersensitivity will occur in the lateral area of the rat left hind paw.
4 weeks later after surgery, we applied von Frey filament test established by 50% up and down threshold method for evaluate mechanical allodynia in SNI model we made (Chaplan et al. 1994). The pain measurement was carried out by three people in order to objectify the results. Rats were habituated 5 minutes in the apparatus. […] We stimulated 5 times in the ventral aspect of rat left paw using each filament from thick to thin. If the rat response to stimulate over 3 times, we considered that the rat has NP. The pain response was determined by the behaviors of the rats suddenly took off their foot and shrank or licked their foot with their tongues. The behavioural patterns of the pain were recorded to calculate the threshold value of the pain.
4 weeks after surgery, when the mechanical stimuli were applied to the left paw of rats using von Frey monofilaments, thresholds were calculated by looking at the behavioral patterns. Through this test, the behavioral patterns that appeared when mechanical stimuli were applied to the neuropathic pain model and expressed as threshold which was a […] assessment of the pain scoring.

Several values for one entry are separate records, joined by “and”; a condition that tells them apart may be missing. Equal values may be shown once.

Turning to `C[N+](C)(C)CCOP(=O)([O-])OC[C@H](O)CO` [Choline alfoscerate, choline alfoscerate], in data set [1] (Example 1: iv 1 g twice a week, Example 2: oral 400 mg 3 times a day, 12 weeks), the “Change in pain intensity of neuropathic pain (in words)” value is recorded as “significant decrease in the pain intensity”. In addition, the “Time after drug administration at which some patients reported decreased neuropathic pain” value in data set [1] (Example 1: iv, Example 2: oral, some patients) is reported as “the next day”. Also, the “Pain intensity (PI-NRS)” value in data set [1] (T0, first visit before drug administration, choline alfoscerate iv group, 1 g/4 mL in 100 mL saline twice a week, n=59, listed as Example 1) was 6.64 points and 6.64 ± 1.03 points; in data set [1] (T0, first visit before drug administration, choline alfoscerate oral group, 400 mg/capsule 3 times a day, n=54, listed as Example 2) it was 6.61 points and 6.61 ± 0.83 points; in data set [1] (T1, 2 weeks after first administration, choline alfoscerate iv 1 g twice a week, listed as Example 1), 5.19 points and 5.19 ± 1.59 points; in data set [1] (T1, 2 weeks after first administration, choline alfoscerate oral 400 mg 3 times a day, listed as Example 2) it was 5.41 points and 5.41 ± 1.16 points; in data set [1] (T2, 4 weeks, choline alfoscerate iv 1 g twice a week), 4.56 ± 1.50 points; in data set [1] (T2, 4 weeks, choline alfoscerate oral 400 mg 3 times a day), 4.52 ± 1.42 points. In addition, the “Pain intensity (PI-NRS)” value amounted to 3.92 ± 1.42 points in data set [1] (T3, 6 weeks, choline alfoscerate iv 1 g twice a week); 3.63 ± 1.45 points in data set [1] (T3, 6 weeks, choline alfoscerate oral 400 mg 3 times a day); 3.34 ± 1.21 points in data set [1] (T4, 8 weeks, choline alfoscerate iv 1 g twice a week); 3.00 ± 1.23 points in data set [1] (T4, 8 weeks, choline alfoscerate oral 400 mg 3 times a day); 2.85 ± 1.10 points in data set [1] (T5, 10 weeks, choline alfoscerate iv 1 g twice a week); 2.59 ± 1.13 points in data set [1] (T5, 10 weeks, choline alfoscerate oral 400 mg 3 times a day). Besides, the “Pain intensity (PI-NRS)” value is 2.46 points and 2.46 ± 0.99 points in data set [1] (T6, 12 weeks, choline alfoscerate iv 1 g twice a week, listed as Example 1); 2.13 points and 2.13 ± 0.99 points in data set [1] (T6, 12 weeks, choline alfoscerate oral 400 mg 3 times a day, listed as Example 2). Moreover, the “Decrease in pain intensity (PI-NRS) from T0” value in data set [1] (T0 to T6 (12 weeks), choline alfoscerate iv 1 g twice a week) is given as 4.18 points; in data set [1] (T0 to T6 (12 weeks), choline alfoscerate oral 400 mg 3 times a day), 4.48 points. For the same molecule, the “Side effect after the treatment” value in data set [2] is recorded as “no side effect”. Besides, the “Mechanical threshold (von Frey), Before” value in data set [3] (choline alfoscerate group) came out at 2.59 ± 0.87 g. Moreover, the “Mechanical threshold (von Frey), After” value in data set [3] (after choline alfoscerate 325 mg/kg intraperitoneally once a day for one week) is given as 7.68 ± 4.48 g. Besides, the “Effect on mechanical allodynia (in words)” value in data set [3] is on record as “significantly suppressed mechanical allodynia”.
As for `CCN(CC)CC(=O)Nc1c(C)cccc1C` [Control group, lidocaine], the “Pain intensity (PI-NRS)” value is recorded as 7.00 ± 0.52 points in data set [1] (T0, first visit before drug administration, nerve block group, 5 mL of 0.5% lidocaine at sites of pain once a week, n=38); 7.00 points in data set [1] (T0, first visit before drug administration, nerve block group, 5 mL of 0.5% lidocaine at sites of pain once a week, n=38, listed as control group); 5.39 ± 0.89 points in data set [1] (T1, 2 weeks after first administration, nerve block 0.5% lidocaine once a week); 5.39 points in data set [1] (T1, 2 weeks after first administration, nerve block 0.5% lidocaine once a week, listed as control group); 4.66 ± 0.85 points in data set [1] (T2, 4 weeks, nerve block 0.5% lidocaine once a week); 3.63 ± 0.79 points in data set [1] (T3, 6 weeks, nerve block 0.5% lidocaine once a week). Besides, the “Pain intensity (PI-NRS)” value in data set [1] (T4, 8 weeks, nerve block 0.5% lidocaine once a week) is listed as 2.87 ± 0.81 points; in data set [1] (T5, 10 weeks, nerve block 0.5% lidocaine once a week), 2.37 ± 0.79 points; in data set [1] (T6, 12 weeks, nerve block 0.5% lidocaine once a week), 2.24 ± 0.91 points; in data set [1] (T6, 12 weeks, nerve block 0.5% lidocaine once a week, listed as control group), 2.24 points. For the same molecule, the “Decrease in pain intensity (PI-NRS) from T0” value stood at 1.61 points in data set [1] (T0 to T1 (2 weeks), nerve block 0.5% lidocaine once a week) and 4.76 points in data set [1] (T0 to T6 (12 weeks), nerve block 0.5% lidocaine once a week).
Turning to `CC(C)C[C@H](CN)CC(=O)O` [Pregabalin, pregabalin], in data set [3] (pregabalin group), the “Mechanical threshold (von Frey), Before” value came out at 2.42 ± 0.81 g. Also, the “Mechanical threshold (von Frey), After” value in data set [3] (after pregabalin 30 mg/kg intraperitoneally once a day for one week) is 9.91 ± 4.12 g. Further, the “Effect on mechanical allodynia (in words)” value in data set [3] is “significantly suppressed mechanical allodynia”.
